{"source": "patent US11241480B2", "about": "“Methods for modulation of dietary and microbial exposure with compositions comprising an EGFR ligand” (Washington University, priority 2017, dated 2022)", "key": {"CBir1 T cells": {"system": "CBir1 T cells", "experiment": "Adoptive transfer of CBir1/DP1 TCR transgenic T cells", "assay_type": "in vivo, mice", "method": "(§1) Isolation of cellular populations and flow cytometry: Small intestines or colons were harvested, rinsed with PBS, and Peyer's patches or colonic patches were removed. Epithelial cellular populations were released by incubating for 15 min three times in a 37° C. rotating incubator in HBSS media (BioWhittaker, Walkersville, Md.) containing 5 mM EDTA as previously described. Isolation of splenic, MLN and lamina propria (LP) cellular populations was performed as previously described. In some experiments, single cell suspensions of MLN were cultured in cell culture media for three days as previously described. The first wash of HBSS+EDTA was used to isolate goblet cells as below. SI and colonic LP-MNPs were identified as 7AAD^−, CD45^+, CD11c^+, MHCII^+for flow cytometric sorting. Goblet cells were identified as CD45^−, CD24^−CK18^+, UEA-I^+for flow cytometric sorting as previously described. For intracellular antigens and cytokines, cells were fixed and permeabilized overnight and stained per the manufacturers recommendations (eBioscience). Flow cytometry was performed with a FACScan cytometer (BD Biosciences, San Jose, Calif.) retrofitted with additional lasers. Data acquisition was performed using CellQuest (BD Biosciences) and Rainbow (Cytek,Fremont, Calif.) or FlowJo software (Tree Star, Ashland, OR). Data analysis was performed on a Macintosh computer running FlowJo software.\n(§2) Treatments to alter GAPs: Acute induction or inhibition of GAPs was performed as previously described. Mice were given 500 μg/kg tyrphostin AG1478 i.p. to inhibit of EGFR activation, 10 mg/kg U0126 i.p. to inhibit MAPK/ERK (MEK1/MEK2) activation, 150 μg/kg carbamylcholine (acetycholine analogue) i.p., 100 mg/kg tropicamide (mAChR4 selective antagonist) i.p., 1 μg recombinant murine EGF (Shenandoah) in 20 μl PBS intracolonic, 10 μg LPS intraluminally, or 100 μl stomach contents from a DOL10 mice intraluminally, or 100 μl heat killed cecal contents from SPF housed adult mice intraluminally. Reagents from Sigma Aldrich, St. Louis, Mo. unless otherwise noted.\n(§3) Adoptive T cell Transfer: 10^5 splenic CD4^+ T cells from CD45.1 CBir1 TCR transgenic mice, CD45.1+ DP1 TCR transgenic mice, or CD45.1+ OTII TCR transgenic mouse were enriched by magnetic particles (Stemcell Technology, #19752 Vancouver, British Columbia, Canada) and injected i.v. into mice. In some experiments cells were labeled with CFSE prior to injection, and MLNs of recipient mice were analyzed three days posts transfer. Mice were analyzed seven days posts transfer to evaluate the presence of the transferred population in the LP. In some experiments, in FIG. 34, FIG. 37, and FIG. 39, cells were transferred on DOL 16, and analyzed on DOL 30 or after 8 days of DSS treatment on DOL 38."}, "colon draining MLN": {"system": "colon draining MLN", "experiment": "MLN culture cytokines and colon H/E histology on DOL35", "assay_type": "in vivo", "conditions": "DOL35 mice; for colon pathology (H/E sections): EGFRi DOL14 and 16 or DOL24 and 26, intracolonic EGF DOL10-21", "method": "as §1\nMeasurement of cytokines, EGF, and immunoglobulins: Cytokines and EGF were measured using the using ELISAs for EGF (R&D systems), phosphorylated MAPK, phosphorylated EGFR, IL17 (eBioscience), IFNγ and IL-10, (R&D systems) per the manufacturers recommendations. Luminal EGF was measured in stomach, SI, and colonic contents; to isolate contents the stomach was opened and contents was added to 1 ml PBS. […] Phosphorylated MAPK, and phosphorylated EGFR was measured on epithelial cells from the SI or colon isolated by one 15 minute wash with HBSS+EDTA as described above. Cytokines were measured on supernatants from cultured MLNs."}, "[1]": {"system": "colonic LP-APCs (LP-MNPs)", "experiment": "Luminal antigen delivery to LP-APCs/LP-MNPs, read out by ex vivo T cell co-culture", "assay_type": "in vivo, mice", "conditions": "for luminal antigen uptake by colonic APCs (expansion of Ova-specific T-cells): DOL 18 mice, agent concurrent with luminal Ova", "method": "Analysis of luminal antigen delivery to LP-DCs: Mice received Ova 20 g/L (Sigma Aldrich) for 3 days prior to isolation of LP-APCs (dietary Ova FIG. 1C) or were anesthetized and 2 mg Ova (OTI assay) or 25 mg Ova (OTII assay) dissolved in phosphate buffered saline (PBS), or PBS alone (controls), was injected intraluminally into the SI or colon as previously described. Two hours later cell populations were isolated from the non-Peyer's patch bearing SI LP or non-colonic patch bearing colon LP. APC populations and Ova specific […] T-cells were isolated with flow cytometric cell sorting and cultured at a ratio of 1:10 APCs (1×10^4) to T-cells (1×10^5). As a positive control, 10 μg Ova was added to cultures of APC populations isolated from mice receiving luminal PBS. After 3 days, cultures were evaluated for the number of T-cells by flow cytometry and cell counting.\nLP-MNP/T cell co-culture: 1×10^5 flow cytometrically sorted splenic CD3+CD4+Vβ8.3+ CBir1 T cells or 1×10^5 flow cytometrically sorted splenic CD3^+CD4^+Vα2^+Vβ5^+ OTI T cells were cultured with […] CD45+ MHCII+ CD11c+ flow cytometrically sorted SI or colonic LP-MNPs isolated from mice two hours following intraluminal administration of 2 mg Ova or PBS. Some wells were cultured with 10 μg Ova or 10 μg CBir1 Flagellin as a positive control. After three days, cultured cells were counted and analyzed by flow cytometry to determine absolute number of transgenic cells to calculate fold increase of T cells."}, "C57BL/6 mice": {"system": "C57BL/6 mice", "experiment": "DSS colitis after early-life manipulation of GAPs", "assay_type": "in vivo", "conditions": "3% DSS DOL30-38", "method": "as §2, §3\nDSS colitis: Mice were given DSS (36,000-50,000 MW, Reagent grade, MP Biomedicals) in drinking water ad libitum for eight days. Math1^fl/fl ERT2^ViCre mice and litter mates were given 1.5% DSS due to their increased susceptibility to disease. Weight was measured daily. On the final day, colons were measured for length to assess shortening, and were fixed in buffered formalin and embedded in paraffin for sectioning. H/E sections were scored for disease as before. In some experiments, colon LP was isolated on the final day of DSS treatment to analyze endogenous T cell and transferred CBir1 T cell populations."}, "[2]": {"conditions": "intracolonic EGF DOL10-21, transfer DOL16"}, "[3]": {"conditions": "EGF on DOL10-21 or EGFR inhibition on DOL 24 and 26"}, "[4]": {"conditions": "EGFR inhibitors on DOL24 and 26 post-weaning"}, "[5]": {"conditions": "EGFR inhibitors on DOL14 and 16 (post-neonatal phase)"}}}
{"compound": "EGF: recombinant murine EGF (Shenandoah); EGFR ligand, given luminally or intracolonically", "values": [{"measurement": "Foxp3 expression of transferred CBir1 T cells on DOL30", "setting": "CBir1 T cells; [2]", "value": "significantly less Foxp3"}, {"measurement": "expansion of transferred CBir1 T cells in colon LP on DOL30", "setting": "CBir1 T cells; [2]", "value": "significantly less expansion"}, {"measurement": "inflammatory cytokine expression (IL-17, TNFα, IFNγ) of CBir1 T cells on DOL30", "setting": "CBir1 T cells; intracolonic EGF DOL10-21, vs PBS treated control mice", "value": "significantly larger proportion of the remaining CBir1 T cell population expressed inflammatory cytokines"}, {"measurement": "expansion of CBir1 cells in the colon draining MLN three days post transfer", "setting": "CBir1 T cells; post-neonatal mice, intracolonic recombinant EGF (1 μg daily DOL10-21)", "value": "failed to expand"}, {"measurement": "colon pathology (H/E sections)", "setting": "colon draining MLN", "value": "no overt pathology"}, {"measurement": "luminal antigen uptake by colonic APCs (expansion of Ova-specific T-cells)", "setting": "[1]", "value": "impaired at expanding Ova-specific T-cells"}, {"measurement": "luminal antigen uptake by colonic APCs (expansion of Ova-specific T-cells)", "setting": "[1]; listed as recombinant EGF", "value": "inhibited GAPs and luminal antigen loading of LP-MNPs"}, {"measurement": "Foxp3 expression of transferred CBir1 T cells after DSS", "setting": "C57BL/6 mice; [3]", "value": "significantly reduced Foxp3 expression"}, {"measurement": "disease severity in DSS colitis (histology, colon length)", "setting": "C57BL/6 mice; [3]", "value": "developed significantly worse disease"}, {"measurement": "expansion of CBir1 T cells in colon LP after DSS", "setting": "C57BL/6 mice; [3]", "value": "significant expansion of CBir1 T cells in colon LP"}, {"measurement": "inflammatory cytokines of transferred CBir1 T cells after DSS", "setting": "C57BL/6 mice; [3]", "value": "significantly increased inflammatory cytokines"}, {"measurement": "weight loss in DSS colitis", "setting": "C57BL/6 mice; [3]", "value": "lost significantly more weight"}]}
{"compound": "COc1cc2ncnc(Nc3cccc(Cl)c3)c2cc1OC", "note": "[EGFRi, tyrphostin AG1478]", "values": [{"measurement": "Foxp3 expression of transferred CBir1 T cells on DOL30", "setting": "CBir1 T cells; [4]", "value": "significantly less Foxp3"}, {"measurement": "inflammatory cytokine expression of CBir1 T cells on DOL30", "setting": "CBir1 T cells; [4]", "value": "significantly greater proportion of the population expressed inflammatory cytokines"}, {"measurement": "Foxp3 expression of CBir1 and DP1 T cells in colon LP seven days post transfer", "setting": "CBir1 T cells; antigen encounter post-weaning, DOL28, under EGFR inhibition", "value": "little Foxp3 expression"}, {"measurement": "Foxp3 and inflammatory cytokine expression of transferred CBir1 T cells on DOL30", "setting": "CBir1 T cells; inhibition of EGFR on DOL14 and 16 (post-neonatal phase), vs controls", "value": "no significant difference in the expression of Foxp3+ or inflammatory cytokines"}, {"measurement": "expansion of transferred CBir1 T cells in colon LP on DOL30", "setting": "CBir1 T cells; inhibition of EGFR on DOL14 and 16 or on DOL24 and 26", "value": "did not affect the expansion of transferred CBir1 T cells"}, {"measurement": "expansion and activation of transferred CBir1 or DP1 cells in the MLN", "setting": "CBir1 T cells; post-weaning mice (DOL28), three days after transfer", "value": "allowed adoptively transferred CBir1 or DP1 cells to expand and become activated"}, {"measurement": "inflammatory cytokine production in the colon draining MLN", "setting": "colon draining MLN; EGFRi post-weaning (DOL24 and 26)", "value": "results in inflammatory cytokine production in the colon draining MLN"}, {"measurement": "colon pathology (H/E sections)", "setting": "colon draining MLN", "value": "does not induce overt pathologic changes"}, {"measurement": "capacity of colonic LP-MNPs to stimulate CBir1 T cells ex vivo", "setting": "[1]; post-weaning mice (DOL28), EGFR inhibition DOL24 and 26", "value": "allowed colonic LP-MNPs from post-weaning mice to capture microbial antigen to stimulate CBir1 T cells ex-vivo"}, {"measurement": "Foxp3 expression of transferred CBir1 T cells after DSS", "setting": "C57BL/6 mice; [3]", "value": "significantly reduced Foxp3 expression"}, {"measurement": "disease severity in DSS colitis (histology, colon length)", "setting": "C57BL/6 mice; [3]", "value": "developed significantly worse disease"}, {"measurement": "expansion of CBir1 T cells in colon LP after DSS", "setting": "C57BL/6 mice; [3]", "value": "significant expansion of CBir1 T cells in colon LP"}, {"measurement": "inflammatory cytokines of transferred CBir1 T cells after DSS", "setting": "C57BL/6 mice; [3]", "value": "significantly increased inflammatory cytokines"}, {"measurement": "weight loss in DSS colitis", "setting": "C57BL/6 mice; [3]", "value": "lost significantly more weight"}, {"measurement": "Foxp3 and inflammatory cytokine expression of CBir1 T cells after DSS", "setting": "C57BL/6 mice; [5]", "value": "continued expressing Foxp3 but not inflammatory cytokines"}, {"measurement": "expansion of CBir1 T cells in colon LP after DSS", "setting": "C57BL/6 mice; [5]", "value": "did not expand further in the colon LP"}]}
